Measured values taken from US20240199548A1, “NOVEL COMPOUNDS USEFUL AS STING AGONISTS AND USES THEREOF” (Jacobio Pharmaceuticals Co., Ltd., priority 2021, published 2024).

Target: human STING WT protein (Homo sapiens, UniProt Q86WV6)
Assay: Human STING WT binding assay (Cisbio HTRF)
Settings: HTRF competition with STING WT ligand d2, 6 His-tagged human STING WT, 3 hours at RT; read-out: hSTING WT binding IC50
Experimental: Example A: Human STING WT Binding Assay
Cisbio Bioassays' human STING WT binding assay (#64 BDSTGPEG & 64 BDSTGPEH, Cisbio) is for quantitative measurement of human STING WT ligand using HTRF® technology.
Negative control: Dispense 5 μL of diluent into each negative control well. Standard: Dispense 5 μL of each Human STING WT Standard 2′3′-cGAMP (Std 0-Std 7) into each standard well. Compound: Dispense 5 μL of compound into each compound well.
Negative control: Add 5 μL of detection buffer to all wells. Other wells: Add 5 μL of human STING WT protein 6 His-tagged protein to all wells.
Add 10 μL of premixed STING WT ligand d2 reagent and 6 His Tb antibody working solution to all wells.
Seal the plate and incubate 3 hours at RT or at Over Night if necessary.
Remove the plate sealer and read on an HTRF® compatible reader (PerkinElmer, USA). Results were analyzed with a two-wavelength signal ratio:intensity (665 nm)/intensity (620 nm).
Fit the data in GraphPad to obtain IC50 values using equation (2)
Y=Bottom+(Top−Bottom)/(1+10^((Log IC50−X)*Hill Slope)) Equation (2)
Y is HTRF Ratio and X is compound concentration.

human STING WT protein, sequence (Q86WV6 whole entry H232R): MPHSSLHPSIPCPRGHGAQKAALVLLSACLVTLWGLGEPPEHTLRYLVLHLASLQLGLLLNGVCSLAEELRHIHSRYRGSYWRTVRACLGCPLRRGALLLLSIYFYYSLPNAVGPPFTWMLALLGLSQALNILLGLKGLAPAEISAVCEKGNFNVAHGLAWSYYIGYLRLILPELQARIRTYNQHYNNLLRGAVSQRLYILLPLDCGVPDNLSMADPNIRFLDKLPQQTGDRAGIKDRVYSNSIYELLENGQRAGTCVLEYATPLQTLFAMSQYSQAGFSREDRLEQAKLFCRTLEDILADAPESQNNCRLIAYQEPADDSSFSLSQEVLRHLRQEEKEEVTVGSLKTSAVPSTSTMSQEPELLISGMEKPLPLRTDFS

SMILES | IC50 [nM]
COc1cc2c(cc1OCCCOc1cc3c(cc1OC)CN(C(=O)CCC(=O)O)C3)CN(C(=O)CCC(=O)O)C2 [Example 1, 4,4′-((propane-1,3-diylbis(oxy))bis(6-methoxyisoindoline-5,2-diyl))bis(4-oxobutanoic Acid)] | < 0.1
COc1cc2c(cc1OCCCOc1cc3c(c(F)c1OC)CN(C(=O)CCC(=O)O)C3)CN(C(=O)CCC(=O)O)C2 [Example 2, 4-(6-(3-((2-(3-carboxypropanoyl)-6-methoxyisoindolin-5-yl)oxy)propoxy)-4-fluoro-5-methoxyisoindolin-2-yl)-4-oxobutanoic Acid] | 33.7
COc1cc2c(cc1OCCCOc1cc3c(cc1OC)CN(C(=O)C[C@H](C)C(=O)O)C3)CN(C(=O)CCC(=O)O)C2 [Example 3, Sodium (S)-4-(5-(3-((2-(3-carboxylatopropanoyl)-6-methoxyisoindolin-5-yl)oxy)propoxy)-6-methoxyisoindolin-2-yl)-2-methyl-4-oxobutanoate] | 1.63
COc1cc2c(cc1OCCCOc1c(OC)cc3c(c1F)CN(C(=O)CCC(=O)O)C3)CN(C(=O)CCC(=O)O)C2 [Example 4, 4-(5-(3-((2-(3-carboxypropanoyl)-4-fluoro-6-methoxyisoindolin-5-yl)oxy)propoxy)-6-methoxyisoindolin-2-yl)-4-oxobutanoic Acid] | 0.68
COc1cc2c(nc1OCCCOc1nc3c(cc1OC)CN(C(=O)CCC(=O)O)C3)CN(C(=O)CCC(=O)O)C2 [Example 5, 4,4′-((propane-1,3-diylbis(oxy))bis(3-methoxy-5,7-dihydro-6H-pyrrolo[3,4-b]pyridine-2,6-diyl))bis(4-oxobutanoic Acid)] | 3.28
COc1cc2c(c(F)c1OCCCOc1c(OC)cc3c(c1F)CN(C(=O)CCC(=O)O)C3)CN(C(=O)CCC(=O)O)C2 [Example 9, 4,4′-((propane-1,3-diylbis(oxy))bis(4-fluoro-6-methoxyisoindoline-5,2-diyl))bis(4-oxobutanoic acid)] | 0.32
C=C(COc1cc2c(cc1OC)CN(C(=O)CCC(=O)O)C2)COc1cc2c(cc1OC)CN(C(=O)CCC(=O)O)C2 [Example 10, 4,4′-(((2-methylenepropane-1,3-diyl)bis(oxy))bis(6-methoxyisoindoline-5,2-diyl))bis(4-oxobutanoic acid)] | 150
COc1cc2c(c(F)c1OCCCOc1c(OC)cc3c(c1Cl)CN(C(=O)CCC(=O)O)C3)CN(C(=O)CCC(=O)O)C2 [Example 13, 4-(5-(3-((2-(3-carboxypropanoyl)-4-chloro-6-methoxyisoindolin-5-yl)oxy)propoxy)-4-fluoro-6-methoxyisoindolin-2-yl)-4-oxobutanoic acid] | 149
COc1cc2c(cc1OCCCOc1cc3c(cc1OC)CN(C(=O)NCCC(=O)O)C3)CN(C(=O)CCC(=O)O)C2 [Example 14, 4-(5-(3-((2-((2-carboxyethyl)carbamoyl)-6-methoxyisoindolin-5-yl)oxy)propoxy)-6-methoxyisoindolin-2-yl)-4-oxobutanoic acid] | 144
